Measured values: patent publication EP4342530A1, “SORTILIN MODULATORS” (Insusense ApS, priority 2022, dated 2024)
“And” between values parts separate entries of the source, which are not always exact repeats. Equal values may be shown once.

Legend:
Sortilin = biological target: T1, Sortilin (Homo sapiens, UniProt Q99523); test: Creoptix (GCI) binding kinetics, human Sortilin; conditions: Species Human, screened at 1 µM, 25 degrees Celsius
T1 construct: purchased Bio-Techne Ltd 3154-ST-050
T1 sequence (Q99523 78-755 limits assumed): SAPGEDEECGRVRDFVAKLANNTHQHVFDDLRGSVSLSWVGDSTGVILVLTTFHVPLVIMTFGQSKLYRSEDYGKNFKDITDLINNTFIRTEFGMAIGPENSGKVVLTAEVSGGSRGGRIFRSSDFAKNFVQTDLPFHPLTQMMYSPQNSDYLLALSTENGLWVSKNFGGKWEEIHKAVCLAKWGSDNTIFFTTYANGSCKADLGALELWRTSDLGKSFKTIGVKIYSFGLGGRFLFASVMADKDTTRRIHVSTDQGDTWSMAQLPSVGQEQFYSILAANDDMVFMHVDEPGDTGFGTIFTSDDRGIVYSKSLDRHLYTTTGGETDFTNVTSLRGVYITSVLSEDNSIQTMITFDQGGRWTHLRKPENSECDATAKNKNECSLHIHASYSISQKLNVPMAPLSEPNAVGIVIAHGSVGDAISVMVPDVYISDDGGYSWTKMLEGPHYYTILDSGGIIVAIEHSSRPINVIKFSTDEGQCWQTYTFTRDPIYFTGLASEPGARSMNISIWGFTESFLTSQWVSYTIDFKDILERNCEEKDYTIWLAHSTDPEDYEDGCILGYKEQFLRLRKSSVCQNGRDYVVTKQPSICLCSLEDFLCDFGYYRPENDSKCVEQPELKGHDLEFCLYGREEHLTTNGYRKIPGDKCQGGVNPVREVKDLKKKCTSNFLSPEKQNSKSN
Experimental: Creoptix (GCI) method - using SEQ ID NO.4 (Murine sortillin)
A protein, bound to a surface, is bathed in a solution containing potential ligands giving rise to binding kinetics to generate Kon and Koff rates, as well as a Kd.
All buffers described were filtered using a 0.2µm filter (Product number: 10300461, Nalgene) and degassed for 15 minutes prior to use.
A flow cell temperature of 25 degrees Celsius was used throughout the experiment.
A 4PCH chip was conditioned across all flow cells using 0.2 X concentration running buffer (running buffer composition: 1XHBS-N, pH 7.4, 3.4 mM EDTA, 1% DMSO) using pre-set conditioning wizard (WAVE control software) injecting: 0.1 M borate, 1 M NaCl (pH 9) followed by three start-up injections of 0.2 X running buffer.
A buffer exchange was performed and 1x running buffer (1XHBS-N, pH 7.4, 3.4 mM EDTA, 1% DMSO) used during the immobilisation procedure: An initial injection of EDC/NHS (mixed in 1:1 ratio) was performed across all 4-flow cells to activate the surface for amine coupling of ligands.
Recombinant Sortilin aliquots were thawed quickly by hand and centrifuged at 13,300 rpm for 10 minutes. A 10 µg/ml protein solution was then made in pH 5.0 acetate and injected once for 20 minutes over flow-cells 2, 3 and 4 for human, human (flow cells 2 & 3), and mouse Sortilin respectively followed by a 60 second dissociation period.
A final 7-minute passivation injection of 50 mM tris was used across all flow cells.
A flow rate of 10 µl/min was used for all conditioning and immobilisation cycles.
Compounds were screened at 1 µM using the in-built 'intermediate binders' settings: 100 ul/min, 45 s baseline, 25 s association, 300 s dissociation, with blanks every 5th sample and a DMSO correction (1.5 % DMSO at the start and end of the experiment as well as every 20 cycles. An acquisition rate of 10 Hz was used throughout the experiment.
Compounds were screened at a final assay concentration of 1 µM and a final DMSO concentration was 1 %. To achieve this, compounds were diluted in DMSO from 10 mM stocks to 100 µM (100 x final assay concentration) then diluted 1:100 in running buffer which contained no DMSO to establish a final assay concentration of compound of 1 µM and a final DMSO concentration of 1 % [DMSO].
Compounds and DMSO were mixed by plate shaking at 1000 rpm for 60 seconds using a Bioshake instrument.
A flow rate of 100 µl/min was used throughout the experiment.
Data was evaluated using the RAPID kinetic analysis tool in the GCI WAVE_control software with data fitted using a standard 1:1 kinetic BioModel.

h-Sortilin = biological target: T2, h-Sortilin (Homo sapiens, UniProt Q99523); test: Neurotensin scintillation proximity assay (displacement of [3H]-neurotensin binding); conditions: 150 nM 6his-Sortilin, 5 nM [3H]-Neurotensin; average of at least 2 determinations; read-out: IC50 [3H]Neurotensin SPA
T2 sequence (Q99523 78-831): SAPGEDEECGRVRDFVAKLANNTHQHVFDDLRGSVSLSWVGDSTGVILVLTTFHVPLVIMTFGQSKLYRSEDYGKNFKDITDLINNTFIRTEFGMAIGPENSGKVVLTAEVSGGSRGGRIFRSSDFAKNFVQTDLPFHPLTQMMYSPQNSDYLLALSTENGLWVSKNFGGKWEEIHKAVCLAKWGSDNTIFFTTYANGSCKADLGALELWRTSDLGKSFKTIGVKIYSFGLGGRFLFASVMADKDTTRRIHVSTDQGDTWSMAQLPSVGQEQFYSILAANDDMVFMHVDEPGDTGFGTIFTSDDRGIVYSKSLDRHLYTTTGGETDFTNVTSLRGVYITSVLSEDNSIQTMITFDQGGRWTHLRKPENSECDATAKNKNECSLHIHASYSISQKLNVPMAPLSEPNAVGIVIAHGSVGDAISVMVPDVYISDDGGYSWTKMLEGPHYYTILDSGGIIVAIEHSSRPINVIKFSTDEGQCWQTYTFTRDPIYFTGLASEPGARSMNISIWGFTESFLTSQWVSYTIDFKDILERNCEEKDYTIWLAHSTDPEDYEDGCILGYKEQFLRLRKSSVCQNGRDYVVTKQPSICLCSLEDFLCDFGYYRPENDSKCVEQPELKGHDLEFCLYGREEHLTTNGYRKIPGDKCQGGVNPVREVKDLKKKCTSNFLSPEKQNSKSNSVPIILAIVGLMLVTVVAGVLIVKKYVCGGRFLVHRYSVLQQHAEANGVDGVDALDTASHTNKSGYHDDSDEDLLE
Experimental: The exemplified compounds of the invention were tested in a Neurotensin (NTS) scintillation proximity assay (SPA). NTS, which is a 13 amino acid neuropeptide, is a sortilin ligand. The IC50 is a measure of the amount of the compound required to inhibit the binding of NTS to sortilin by 50%. The skilled person will recognise that the lower the IC50 value, the less of the compound needed to achieve the desired effect, and as a result, the chances of undesirable off-target effects are reduced.
Compound affinity was determined by measuring the displacement of [3H]-neurotensin binding to h-Sortilin in SPA format. Total volume of 40 µl in 50 mM HEPES pH 7.4 assay buffer containing 100 mM NaCl, 2.0 mM CaCl2, 0.1% BSA and 0.1% Tween-20. Compound pre-incubation for 30 minutes at room temperature with 150 nM of 6his-Sortilin before 5 nM [3H]-Neurotensin and Ni chelate imaging beads (Perkin Elmer) were added, after 6 hours the plate was read on a ViewLux with 360 s exposure time. Dose-response evaluation of compounds was performed with 8 concentrations of drugs (covering 3 decades). IC50 values were calculated by nonlinear regression using the sigmoid concentration-response (variable slope) using CDD Vault software. All values reported are average of at least 2 determinations.

For `C[C@@H](N[C@@H](CCC(C)(C)C)C(=O)O)c1ccc2c(c1)N(C)CCC2` [Example 48], the Kd (Sortilin; Form of Compound Free acid) was 46.2 nM.
Work on `CC(C)(C)CC[C@H](NCc1ccc2c(c1)OCCC2)C(=O)O` [Example 5, (2S)-2-{[(3,4-dihydro-2H-1-benzopyran-7-yl)methyl]amino}-5,5-dimethylhexanoic acid] yielded an IC50 (h-Sortilin) of 310 nM and a Kd (Sortilin; Form of Compound Free acid) of 63.4 nM.
For `CN1C(=O)COc2cc(CN[C@@H](CCC(C)(C)C)C(=O)O)ccc21` [Example 25, (2S)-5,5-dimethyl-2-{[(4-methyl-3-oxo-3,4-dihydro-2H-1,4-benzoxazin-7-yl)methyl]amino}hexanoic acid], the IC50 (h-Sortilin) was 950 nM and the Kd (Sortilin; Form of Compound Free acid) was 563 nM and 158 nM.
`CN1C(=O)COc2ccc(CN[C@@H](CCC(C)(C)C)C(=O)O)cc21` [Example 21, (2S)-5,5-dimethyl-2-{[(4-methyl-3-oxo-3,4-dihydro-2H-1,4-benzoxazin-6-yl)methyl]amino}hexanoic acid] was tested, and the IC50 (h-Sortilin) was 260 nM and the Kd (Sortilin; Form of Compound Free acid) was 164 nM.
For `C[C@@H](N[C@@H](CCC(C)(C)C)C(=O)O)c1ccc2c(c1)OCCO2` [Example 51], the IC50 (h-Sortilin) was 280 nM and the Kd (Sortilin; Form of Compound Free acid) was 181 nM.
`CC(C)(C)CC[C@H](N[C@@H](c1ccc2c(c1)CCCC2)C(F)F)C(=O)O` [Example 45] gave an IC50 (h-Sortilin) of 120 nM and a Kd (Sortilin; Form of Compound Free acid) of 43.9 nM.
`CC(C)(C)CC[C@H](N[C@@H](c1ccc2c(c1)CCC2)C(F)(F)F)C(=O)O` [Example 49] showed an IC50 (h-Sortilin) of 220 nM and a Kd (Sortilin; Form of Compound Free acid) of 504 nM.
`CC(C)(C)CC[C@H](NCc1ccc2c(c1)CCOC2)C(=O)O` [Example 1, (S)-2-((isochroman-6-ylmethyl)amino)-5,5-dimethylhexanoic acid] gave an IC50 (h-Sortilin) of 270 nM and a Kd (Sortilin; Form of Compound Free acid) of 107 nM.
`CC(C)(C)CC[C@H](NCc1cnc2c(c1)CCCC2)C(=O)O` [Example 7, (S)-5,5-dimethyl-2-(((5,6,7,8-tetrahydroquinolin-3-yl)methyl)amino)hexanoic acid] was tested, and the IC50 (h-Sortilin) was 140 nM and the Kd (Sortilin; Form of Compound Free acid) was 264 nM.
Molecule `C[C@@H](N[C@@H](CCC(C)(C)C)C(=O)O)c1ccc2c(c1)CCC2` [Example 13] has an IC50 (h-Sortilin) of 210 nM and a Kd (Sortilin; Form of Compound Mesylate salt) of 57.5 nM.
Molecule `C[C@H](N[C@@H](CCC(C)(C)C)C(=O)O)c1ccc2c(c1)OCCO2` [Example 61] has an IC50 (h-Sortilin) of 350 nM and a Kd (Sortilin; Form of Compound Free acid) of 144 nM.
`CC(C)(C)CC[C@H](NCc1cccc2c1CCCO2)C(=O)O` [Example 72] showed an IC50 (h-Sortilin) of 1080 nM and a Kd (Sortilin; Form of Compound Free acid) of 613 nM.
`C[C@H](N[C@@H](CCC(C)(C)C)C(=O)O)c1ccc2c(c1)CCC2` [Example 14] showed an IC50 (h-Sortilin) of 280 nM and a Kd (Sortilin; Form of Compound Mesylate salt) of 35.1 nM.
With `C[C@@H](N[C@@H](CCC(C)(C)C)C(=O)O)c1ccc2c(c1)OCO2` [Example 54] the IC50 (h-Sortilin) was 380 nM and the Kd (Sortilin; Form of Compound Free acid) was 105 nM.
Molecule `C[C@H](N[C@@H](CCC(C)(C)C)C(=O)O)c1ccc(Oc2ccccc2)nc1` [Example 44] has an IC50 (h-Sortilin) of 740 nM and a Kd (Sortilin; Form of Compound Free acid) of 127 nM.
Work on `CC(C)(C)CC[C@H](NCc1ccc2c(c1)CCC2)C(=O)O` [Example 6, (2S)-2-{[(2,3-dihydro-1H-inden-5-yl)methyl]amino}-5,5-dimethylhexanoic acid] yielded an IC50 (h-Sortilin) of 210 nM and a Kd (Sortilin; Form of Compound Free acid) of 117 nM.
Molecule `CC(C)(C)CC[C@H](N[C@@H](c1cnc2c(c1)CCCC2)C(F)(F)F)C(=O)O` [Example 33, (2S)-5,5-dimethyl-2-{[(1S)-2,2,2-trifluoro-1-(5,6,7,8-tetrahydroquinolin-3-yl)ethyl]amino}hexanoic acid] has an IC50 (h-Sortilin) of 130 nM and a Kd (Sortilin; Form of Compound Free acid) of 28 nM.
Molecule `CC(C)(C)CC[C@H](NCc1cnc2c(c1)COCC2)C(=O)O` [Example 2, (2S)-5,5-dimethyl-2-[({5H,7H,8H-pyrano[4,3-b]pyridin-3-yl}methyl)amino]hexanoic acid] has an IC50 (h-Sortilin) of 350 nM and a Kd (Sortilin; Form of Compound Free acid) of 172 nM.
For `CC(C)(C)CC[C@H](NCc1cccc(Oc2ccccc2)c1)C(=O)O` [Example 34], the IC50 (h-Sortilin) was 820 nM and the Kd (Sortilin; Form of Compound Free acid) was 216 nM.
For `CC(C)(C)CC[C@H](NCc1cnc2c(c1)CCC2)C(=O)O` [Example 8, (2S)-2-[({5H,6H,7H-cyclopenta[b]pyridin-3-yl}methyl)amino]-5,5-dimethylhexanoic acid], the IC50 (h-Sortilin) was 500 nM and the Kd (Sortilin; Form of Compound Free acid) was 191 nM.
`Cc1cc(CN[C@@H](CCC(C)(C)C)C(=O)O)cc2c1CCCO2` [Example 55] was tested, and the IC50 (h-Sortilin) was 310 nM.
Molecule `CN1CCc2cc(CN[C@@H](CCC(C)(C)C)C(=O)O)ccc2C1=O` [Example 24, (2S)-5,5-dimethyl-2-{[(2-methyl-1-oxo-1,2,3,4-tetrahydroisoquinolin-6-yl)methyl]amino}hexanoic acid] has an IC50 (h-Sortilin) of 630 nM.
Molecule `CC(C)(C)CC[C@H](NCc1ccc2c(c1)NC(=O)CC2)C(=O)O` [Example 29, (2S)-5,5-dimethyl-2-{[(2-oxo-1,2,3,4-tetrahydroquinolin-7-yl)methyl]amino}hexanoic acid] has an IC50 (h-Sortilin) of 290 nM.
For `CC(C)(C)CC[C@H](NCc1cccc2c1COCC2)C(=O)O` [Example 67], the IC50 (h-Sortilin) was 500 nM.
Work on `CC(C)(C)CC[C@H](NCc1cccc2c1CCOC2)C(=O)O` [Example 63] yielded an IC50 (h-Sortilin) of 650 nM.
For `CN1CCc2ccc(CN[C@@H](CCC(C)(C)C)C(=O)O)cc2C1=O` [Example 23, (2S)-5,5-dimethyl-2-{[(2-methyl-1-oxo-1,2,3,4-tetrahydroisoquinolin-7-yl)methyl]amino}hexanoic acid], the IC50 (h-Sortilin) was 430 nM.
Work on `CC(C)(C)CC[C@H](NCc1cccc(N2CCCC2)c1)C(=O)O` [Example 77] yielded an IC50 (h-Sortilin) of 350 nM.
